Assays:
[1] = system: A549 (human lung carcinoma) cells; assay: Cell Viability Assay (CellTiter-Glo), A549; format: cell-based
Summary of the method: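 Cells grown in RPMI 1640 with 10% FBS were seeded at 1.67E+04 cells/mL and left overnight at 37° C., 5% CO2. They were then exposed to serially diluted compound for 72 h, after which CellTiter-Glo luminescence was read, normalized to DMSO, and fitted to a 4-parameter logistic model for IC50.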

KRAS G12C = KRAS G12C (Homo sapiens (Human), UniProt P01116, C118A/G12C); assay: 2 h coupled exchange assay; format: biochemical; conditions: Avg 2 h Coupled exchange IC50, 2 h compound pre-incubation
Experimental: The term “2 h coupled exchange assay” or “20 h coupled exchange assay” as used herein refers to the assay described in the Section entitled “BIOLOGICAL EVALUATION.”

[2] = system: MIA PaCa-2 (human pancreatic carcinoma) cells; assay: Cell Viability Assay (CellTiter-Glo), MIA PaCa-2; format: cell-based
Experimental: Serially-diluted compound or DMSO was added to the cells, and plates were incubated at 37° C., 5% CO2 for 72 h. Cell viability was measured using a CellTiter-Glo® Luminescent Cell Viability Assay kit (Promega) according to the manufacturer's protocol. The luminescence signal of treated samples was normalized to DMSO control, and data were analyzed using a 4-parameter logistic model to calculate IC50 values.

[3] = SOS-mediated nucleotide exchange

KRAS G12C, sequence (P01116 other isoform, or with tags, fused parts or gaps G12C/C118A): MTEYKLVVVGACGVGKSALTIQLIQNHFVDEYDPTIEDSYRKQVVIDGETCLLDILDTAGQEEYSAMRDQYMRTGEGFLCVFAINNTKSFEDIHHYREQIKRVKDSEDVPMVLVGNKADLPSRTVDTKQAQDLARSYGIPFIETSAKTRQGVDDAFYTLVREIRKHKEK

C=CC(=O)N1CC2(CCN(c3nc4c(c(-c5cc(O)ccc5Cl)c3C#N)CCN(C[C@@H]3CCCN3C)C4)C2)C1 [Example 21-28, 4-(2-chloro-5-hydroxyphenyl)-7-(((2S)-1-methyl-2-pyrrolidinyl)methyl)-2-(2-(2-propenoyl)-2,6-diazaspiro[3.4]octan-6-yl)-5,6,7,8-tetrahydro-1,7-naphthyridine-3-carbonitrile]
IC50 ([1]; Homo sapiens, A549, 72 h): > 25000 nM | IC50 (KRAS G12C): 473 nM | IC50 ([2]; Homo sapiens, MIA PaCa-2, 72 h): 314 nM

C=CC(=O)N1CC2(CCN(c3nc4c(c(-c5ccccc5OC)c3C#N)CCC(c3scnc3C)=C4)C2)C1 [Example 23-39, 4-(2-methoxyphenyl)-7-(4-methyl-1,3-thiazol-5-yl)-2-(2-(2-propenoyl)-2,6-diazaspiro[3.4]octan-6-yl)-5,6-dihydro-3-quinolinecarbonitrile]
IC50 ([1]; Homo sapiens, A549, 72 h): 7690 nM | IC50 (KRAS G12C): 394 nM | IC50 ([2]; Homo sapiens, MIA PaCa-2, 72 h): 2370 nM

C=CC(=O)N1CC2(CCN(c3cc4c(c(-c5c(C)c(Cl)cc6cnn(C)c56)c3C#N)OCCC4)C2)C1 [Example 2-104, 8-(5-chloro-1,6-dimethyl-1H-indazol-7-yl)-6-(2-(2-propenoyl)-2,6-diazaspiro[3.4]octan-6-yl)-3,4-dihydro-2H-chromene-7-carbonitrile]
IC50 ([1]; Homo sapiens, A549, 72 h): > 5000 nM | IC50 (KRAS G12C; [3]): 18 nM | IC50 ([2]; Homo sapiens, MIA PaCa-2, 72 h): 3 nM

C=CC(=O)N1CC2(CCN(c3nc4c(c(-c5cccc6cc(O)ccc56)c3C)CCN(C(C)=O)C4)C2)C1 [Example 18-10, 1-(6-(7-acetyl-4-(6-hydroxy-1-naphthalenyl)-3-methyl-5,6,7,8-tetrahydro-1,7-naphthyridin-2-yl)-2,6-diazaspiro[3.4]octan-2-yl)-2-propen-1-one]
IC50 ([1]; Homo sapiens, A549, 72 h): > 5000 nM | IC50 (KRAS G12C): 260 nM | IC50 ([2]; Homo sapiens, MIA PaCa-2, 72 h): 381 nM

C=CC(=O)N1CC2(CCN(c3nc4c(c(-c5c(C)c(Cl)cc6cn[nH]c56)c3C#N)COC(C)(C)C4)C2)C1 [Example 14-91, 4-(5-chloro-6-methyl-1H-indazol-7-yl)-7,7-dimethyl-2-(2-(2-propenoyl)-2,6-diazaspiro[3.4]octan-6-yl)-7,8-dihydro-5H-pyrano[4,3-b]pyridine-3-carbonitrile]
IC50 ([1]; Homo sapiens, A549, 72 h): > 5000 nM | IC50 (KRAS G12C): 16 nM | IC50 ([2]; Homo sapiens, MIA PaCa-2, 72 h): 20 nM

C=CC(=O)N1CC2(CCN(c3nc4ccccc4c(-c4cc(O)cc5ccccc45)c3C#N)C2)C1 [Example 2-4, 4-(3-hydroxy-1-naphthalenyl)-2-(2-(2-propenoyl)-2,6-diazaspiro[3.4]octan-6-yl)-3-quinolinecarbonitrile]
IC50 ([1]; Homo sapiens, A549, 72 h): 6250 nM | IC50 (KRAS G12C; [3]): 173 nM | IC50 ([2]; Homo sapiens, MIA PaCa-2, 72 h): 2060 nM

C=CC(=O)N1CC2(CCN(c3nc4c(c(-c5c(C)ccc6[nH]ncc56)c3C#N)CC3CC43)C2)C1 (stereo not drawn) [Example 13-81]
IC50 ([1]; Homo sapiens, A549, 72 h): > 5000 nM | IC50 (KRAS G12C; [3]): 98 nM | IC50 ([2]; Homo sapiens, MIA PaCa-2, 72 h): 319 nM

C=CC(=O)N1CC2(CCN(c3nc(-c4cccc5cccc(C)c45)c4c(n3)N(C)CCO4)C2)C1 [Example 1-28, 1-(6-(8-methyl-4-(8-methyl-1-naphthalenyl)-7,8-dihydro-6H-pyrimido[5,4-b][1,4]oxazin-2-yl)-2,6-diazaspiro[3.4]octan-2-yl)-2-propen-1-one]
IC50 ([1]; Homo sapiens, A549, 72 h): 11500 nM | IC50 (KRAS G12C; [3]): 2980 nM | IC50 ([2]; Homo sapiens, MIA PaCa-2, 72 h): 9360 nM

C=CC(=O)N1CC2(CCN(c3nc4c(c(-c5ccccc5Cl)c3C#N)COC(C)(C)C4)C2)C1 [Example 13-5, 4-(2-chlorophenyl)-7,7-dimethyl-2-(2-(2-propenoyl)-2,6-diazaspiro[3.4]octan-6-yl)-7,8-dihydro-5H-pyrano[4,3-b]pyridine-3-carbonitrile]
IC50 ([1]; Homo sapiens, A549, 72 h): > 5000 nM | IC50 (KRAS G12C; [3]): 973 nM | IC50 ([2]; Homo sapiens, MIA PaCa-2, 72 h): > 5000 nM

C=CC(=O)N1CC2(C1)CN(c1nc3cc(-c4ccnn4C)ccc3c(-c3ccccc3Cl)c1C#N)CC2(F)F [Example 17-2, 4-(2-chlorophenyl)-2-(8,8-difluoro-2-(2-propenoyl)-2,6-diazaspiro[3.4]octan-6-yl)-7-(1-methyl-1H-pyrazol-5-yl)-3-quinolinecarbonitrile]
IC50 ([1]; Homo sapiens, A549, 72 h): 3020 nM | IC50 (KRAS G12C): 98 nM | IC50 ([2]; Homo sapiens, MIA PaCa-2, 72 h): 1880 nM

C=CC(=O)N1CC2(CCN(c3nc4c(c(-c5c(N)c(Cl)cc(Cl)c5F)c3C#N)COC(C)(C)C4)C2)C1 (single isomer, unassigned) [Example 13-156, 4-(2-amino-3,5-dichloro-6-fluorophenyl)-7,7-dimethyl-2-(2-(2-propenoyl)-2,6-diazaspiro[3.4]octan-6-yl)-7,8-dihydro-5H-pyrano[4,3-b]pyridine-3-carbonitrile]
IC50 ([1]; 72 h): 8160 nM | IC50 (KRAS G12C; [3]): 140000 nM | IC50 ([2]; 72 h): 5920 nM

C=CC(=O)N1CC2(CCN(c3nc4c(c(-c5ncccc5F)c3C#N)CC[C@@H](c3scnc3C)C4)C2)C1 (racemic) [Example 23-57, (7R)-4-(3-fluoro-2-pyridinyl)-7-(4-methyl-1,3-thiazol-5-yl)-2-(2-(2-propenoyl)-2,6-diazaspiro[3.4]octan-6-yl)-5,6,7,8-tetrahydro-3-quinolinecarbonitrile (7S)-4-(3-fluoro-2-pyridinyl)-7-(4-methyl-1,3-thiazol-5-yl)-2-(2-(2-propenoyl)-2,6-diazaspiro[3.4]octan-6-yl)-5,6,7,8-tetrahydro-3-quinolinecarbonitrile]
IC50 ([1]; Homo sapiens, A549, 72 h): > 5000 nM | IC50 (KRAS G12C): 85 nM | IC50 ([2]; Homo sapiens, MIA PaCa-2, 72 h): 299 nM

C=CC(=O)N1CC2(CCN(c3nc4c(c(-c5ccc(F)cc5F)c3C#N)CCC(c3scnc3C)=C4)C2)C1 [Example 23-21, 4-(2,4-difluorophenyl)-7-(4-methyl-1,3-thiazol-5-yl)-2-(2-(2-propenoyl)-2,6-diazaspiro[3.4]octan-6-yl)-5,6-dihydro-3-quinolinecarbonitrile]
IC50 ([1]; Homo sapiens, A549, 72 h): 3780 nM | IC50 (KRAS G12C): 74 nM | IC50 ([2]; Homo sapiens, MIA PaCa-2, 72 h): 714 nM

C=CC(=O)N1CC2(CCN(c3nc4c(c(-c5c(C)ccc6[nH]nc(C)c56)n3)CCCC4)C2)C1 [Example 1-36, 1-(6-(4-(3,5-dimethyl-1H-indazol-4-yl)-5,6,7,8-tetrahydro-2-quinazolinyl)-2,6-diazaspiro[3.4]octan-2-yl)-2-propen-1-one]
IC50 ([1]; Homo sapiens, A549, 72 h): 15900 nM | IC50 (KRAS G12C; [3]): 1660 nM | IC50 ([2]; Homo sapiens, MIA PaCa-2, 72 h): 3380 nM

C=CC(=O)N1CC2(CCN(c3cn4ncnc4c(-c4c(C)ccc5[nH]ncc45)c3C#N)C2)C1 [Example 1-48, 8-(5-methyl-1H-indazol-4-yl)-6-(2-(2-propenoyl)-2,6-diazaspiro[3.4]octan-6-yl)[1,2,4]triazolo[1,5-a]pyridine-7-carbonitrile]
IC50 ([1]; Homo sapiens, A549, 72 h): > 5000 nM | IC50 (KRAS G12C; [3]): 554 nM | IC50 ([2]; Homo sapiens, MIA PaCa-2, 72 h): > 5000 nM

C=CC(=O)N1CC2(CCN(c3nc4c(c(-c5cc(O)cc6ccccc56)c3C#N)C[C@H]3C[C@@H]4C3(C)C)C2)C1 [Example 13-108, (1R,9R)-6-(3-hydroxy-1-naphthalenyl)-10,10-dimethyl-4-(2-(2-propenoyl)-2,6-diazaspiro[3.4]octan-6-yl)-3-azatricyclo[7.1.1.0^2,7]undeca-2,4,6-triene-5-carbonitrile]
IC50 ([1]; Homo sapiens, A549, 72 h): 2910 nM | IC50 (KRAS G12C; [3]): 24 nM | IC50 ([2]; Homo sapiens, MIA PaCa-2, 72 h): 63 nM

C=CC(=O)N1CC2(CCN(c3nc4c(c(-c5cc(O)cc6ncccc56)c3C#N)C[C@H]3C[C@@H]4C3(C)C)C2)C1 (single isomer, unassigned) [Example 2-46]
IC50 ([1]; Homo sapiens, A549, 72 h): > 5000 nM | IC50 (KRAS G12C; [3]): 6 nM | IC50 ([2]; Homo sapiens, MIA PaCa-2, 72 h): 135 nM

C=CC(=O)N1CC2(CCN(c3nc4cc(-n5cncc5C)ccc4c(-c4ccccc4Cl)c3C#N)C2)C1 [Example 17-7, 4-(2-chlorophenyl)-7-(5-methyl-1H-imidazol-1-yl)-2-(2-(2-propenoyl)-2,6-diazaspiro[3.4]octan-6-yl)-3-quinolinecarbonitrile]
IC50 ([1]; Homo sapiens, A549, 72 h): 3100 nM | IC50 (KRAS G12C): 126 nM | IC50 ([2]; Homo sapiens, MIA PaCa-2, 72 h): 1800 nM

C=CC(=O)N1CC2(CCN(c3nc4c(c(-c5c(C)ccc6[nH]ncc56)c3C#N)CCCC4(F)F)C2)C1 [Example 13-96, 2-(2-acryloyl-2,6-diazaspiro[3.4]octan-6-yl)-8,8-difluoro-4-(5-methyl-1H-indazol-4-yl)-5,6,7,8-tetrahydroquinoline-3-carbonitrile]
IC50 ([1]; Homo sapiens, A549, 72 h): > 5000 nM | IC50 (KRAS G12C; [3]): 325 nM | IC50 ([2]; Homo sapiens, MIA PaCa-2, 72 h): > 5000 nM

C=CC(=O)N1CC2(CCN(c3nc4c(c(-c5ncccc5F)c3C#N)CC[C@H](c3scnc3C)C4)C2)C1 [Example 23-60, (7S)-4-(3-fluoro-2-pyridinyl)-7-(4-methyl-1,3-thiazol-5-yl)-2-(2-(2-propenoyl)-2,6-diazaspiro[3.4]octan-6-yl)-5,6,7,8-tetrahydro-3-quinolinecarbonitrile]
IC50 ([1]; Homo sapiens, A549, 72 h): 14000 nM | IC50 (KRAS G12C): 24 nM | IC50 ([2]; Homo sapiens, MIA PaCa-2, 72 h): 47 nM

C=CC(=O)N1CC2(CCN(c3nc4c(C)cccc4c(-c4c(C)ccc5[nH]ncc45)c3C#N)C2)C1 [Example 1-6, 8-methyl-4-(5-methyl-1H-indazol-4-yl)-2-(2-(2-propenoyl)-2,6-diazaspiro[3.4]octan-6-yl)-3-quinolinecarbonitrile]
IC50 ([1]; Homo sapiens, A549, 72 h): 6440 nM | IC50 (KRAS G12C; [3]): 1890 nM | IC50 ([2]; Homo sapiens, MIA PaCa-2, 72 h): 1140 nM

C=CC(=O)N1CC2(CCN(c3nc4c(c(-c5ccccc5F)c3C#N)CCN(c3ccnn3C)C4)C2)C1 [Example 21-2, 4-(2-fluorophenyl)-7-(1-methyl-1H-pyrazol-5-yl)-2-(2-(2-propenoyl)-2,6-diazaspiro[3.4]octan-6-yl)-5,6,7,8-tetrahydro-1,7-naphthyridine-3-carbonitrile]
IC50 ([1]; Homo sapiens, A549, 72 h): > 5000 nM | IC50 (KRAS G12C): 189 nM | IC50 ([2]; Homo sapiens, MIA PaCa-2, 72 h): 805 nM

C=CC(=O)N1CC2(CCN(c3nc4cc(-c5scnc5C)cnc4c(-c4ccccc4OC)c3C#N)C2)C1 [Example 19-6, 4-(2-methoxyphenyl)-7-(4-methyl-1,3-thiazol-5-yl)-2-(2-(2-propenoyl)-2,6-diazaspiro[3.4]octan-6-yl)-1,5-naphthyridine-3-carbonitrile]
IC50 ([1]; Homo sapiens, A549, 72 h): > 5000 nM | IC50 (KRAS G12C): 363 nM | IC50 ([2]; Homo sapiens, MIA PaCa-2, 72 h): 1130 nM
